Earlier results as cited in US20180085319A1, “METHODS AND COMPOSITIONS FOR TREATING CANCER” (priority 2016, published 2018).

System: anti-immunotoxin immune response

| Substance | effect on immune response to SS1P in mesothelioma patients (immunosuppressive treatment given with SS1P) | prevention of anti-immunotoxin immune response in patients (B cell depletion) |
| --- | --- | --- |
| cyclophosphamide and pentostatin [cyclophosphamide and pentostatin (CP/PS)] | only delayed the response to the immunotoxin | – |
| Rituximab | – | ineffective in preventing anti-immunotoxin immune response |
